Laboratory results published in US20240408064A1, “RAS INHIBITORS, COMPOSITIONS AND METHODS OF USE THEREOF” (GENETOLEAD INC., priority 2021, published 2024).

Experiments:
HRas^G12V [1] = biological target: T1, HRas^G12V (Homo sapiens (Human), UniProt P01112, G12V); experiment: 19F DLB (ligand-observed 19F NMR) score; format: binding; design: scale not given here
Method: (§1) All NMR experiments were collected using 3 mm NMR tubes on a 600 MHz Bruker Avance III spectrometer equipped with a QCI helium cryoprobe and a SampleJet sample changer. The buffer used for NMR experiments was 25 mM sodium phosphate pH 7.4, 150 mM NaCl, 5 mM MgCl2, 1 mM TCEP-d16, 10% D2O. Data were processed using Bruker TopSpin.
(§2) Since the fragment library was curated using phosphate buffer, 25 mM sodium phosphate pH 7.4, 150 mM NaCl, 5 mM MgCl2, 1 mM TCEP-d16, 10% D2O Fresh TCEP was used for experiments. Screening was performed using ^1H-decoupled 1D ^19F experiment Bruker experiment (zgfhigqn.2) with 64 scans and a relaxation delay of 5 seconds. 50 μM HRas^G12V and 240 μM of each fragment in pools (mixtures) were used.
Hit confirmation was performed using the same ^19F experiment as the screen. Ligand-observed 1D ^1H, protein-observed 1D ^1H, ^1H T2-CPMG as well as Saturation Transfer Difference (STD) experiments were also run on the same samples. Ligand-observed 1D ^1H was run using the standard Bruker sequence with excitation sculpting (zgesgp) with a relaxation delay of 10 seconds and 16 scans per spectrum. Protein-observed 1D ^1H was performed using the same sequence with a relaxation delay of 1 second and 256 scans in order to increase the signal-to-noise of the protein resonances, while keeping the experimental time relatively short. The ^1H T2-CPMG experiment employed a modified version of the Bruker 1D ^1H zgesgp experiment with the addition of a CPMG pulse train after the first 90° excitation pulse. Total duration for each spin echo was fixed at 1 ms (τ=500 μs), while the number of echoes in the pulse train was varied according to the total time (T). The number of scans for each spectrum was 4 and eight delay times were run on each sample, ranging from 1 ms to 800 ms. […]

HRas^G12V [2] = biological target: T1, HRas^G12V; experiment: 19F T2-CPMG NMR score; format: binding
Method: as §1, §2
Hit confirmation was performed using the same ^19F experiment as the screen. Ligand-observed 1D ^1H, protein-observed 1D ^1H, ^1H T2-CPMG as well as Saturation Transfer Difference (STD) experiments were also run on the same samples. Ligand-observed 1D ^1H was run using the standard Bruker sequence with excitation sculpting (zgesgp) with a relaxation delay of 10 seconds and 16 scans per spectrum. Protein-observed 1D ^1H was performed using the same sequence with a relaxation delay of 1 second and 256 scans in order to increase the signal-to-noise of the protein resonances, while keeping the experimental time relatively short. The ^1H T2-CPMG experiment employed a modified version of the Bruker 1D ^1H zgesgp experiment with the addition of a CPMG pulse train after the first 90° excitation pulse. Total duration for each spin echo was fixed at 1 ms (τ=500 μs), while the number of echoes in the pulse train was varied according to the total time (T). The number of scans for each spectrum was 4 and eight delay times were run on each sample, ranging from 1 ms to 800 ms.
Because of its power to probe the intrinsically weak interactions (Kd) between targets and low-molecular weight fragments, NMR fragment-based lead discovery (FBLD) is a very useful biophysical method in early stage drug discovery, especially for challenging target proteins; including those with shallow binding pockets. Since FBLD screens are performed using low-molecular weight compounds (fragments) with lower structural complexity, the same chemical space can be covered using a smaller number of drug-like fragments versus use of large libraries of higher-molecular weight lead-like compounds as in high throughput screening (HTS) campaigns. Therefore, FBLD has a much higher hit rate than HTS using only several hundred to several thousand compounds in comparison with approximately 1 million compounds for HTS. Also, the small size of the compounds screened in FBLD means a better chance to fully match the interactions with small or transient pockets within the target protein, where these less tractable pockets cannot be accessed with standard classical HTS methods. […] We expect this methodology to be more advantageous than classical HTS methods for expediting the time from hit to lead (H2L) and allows for rapid access to high quality leads with lower attrition rates in subsequent lead optimization (LO) campaigns toward pre-clinical candidate selection. FBLD screening by NMR involves a “consensus binding” approach where several distinct NMR experiments (DLB, STD, CPMG) are applied along with a free-state aggregation detection method (T2-CPMG) to rank the compounds for their affinity to the receptor (HRAS in this case) whilst simultaneously monitoring the solution behavior and critical quality attributes of each compound. The latter helps to eliminate artifact binders which are highly problematic. We performed a fluorine screen involving 461 compounds that were derived from a highly curated fragment library. Moreover, two-dimensional ^15N HSQC NMR was also used to validate ligand-binding sites on the target protein. […]

T1 sequence (P01112 1-166 G12V): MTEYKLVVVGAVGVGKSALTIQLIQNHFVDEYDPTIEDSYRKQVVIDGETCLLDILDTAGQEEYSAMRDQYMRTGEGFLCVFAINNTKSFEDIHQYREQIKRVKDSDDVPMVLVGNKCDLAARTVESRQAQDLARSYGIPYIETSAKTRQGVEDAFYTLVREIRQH

Row | Structure (SMILES) | 19F DLB Score (HRas^G12V [1]) | 19F T2-CPMG Score (HRas^G12V [2])
1 | O=C(O)C1CCN(C(=O)Cc2c[nH]c3cc(F)ccc23)CC1 [Compound 10129] | 1.27 | 3.92
2 | O=C(Cc1c[nH]c2cc(F)ccc12)N1CCCC(O)C1 (centres unmarked) [Compound 10120] | 2.34 | 13.94
3 | CN1CCC(NC(=O)Cc2c[nH]c3cc(F)ccc23)C(C(=O)O)C1 (centres unmarked) [Compound 10117, 4-(2-(6-fluoro-1H-indol-3-yl)acetamido)-1-methylpiperidine-3-carboxylic acid] | 1.54 | 10.14
4 | CN1CCN(C(=O)Cc2c[nH]c3cc(F)ccc23)CC1 [Compound 10065] | 2.88 | 22.6
5 | COC(=O)C1CN(C(=O)Cc2c[nH]c3cc(F)ccc23)C1 [Compound 10087, methyl 1-(2-(6-fluoro-1H-indol-3-yl)acetyl) azetidine-3-carboxylate] | 2.16 | 13.65
6 | CC(C)COC1CCN(C(=O)Cc2c[nH]c3cc(F)ccc23)CC1 [Compound 10111, 2-(6-fluoro-1H-indol-3-yl)-1-(4-isobutoxypiperidin-1-yl) ethan-1-one] | 2.23 | 12.96
7 | O=C(Cc1c[nH]c2cc(F)ccc12)Nc1ncccn1 [Compound 10078, 2-(6-fluoro-1H-indol-3-yl)-N-(pyrimidin-2-yl) acetamide] | 2.07 | 11.04
8 | COc1cccc(NC(=O)Cc2c[nH]c3cc(F)ccc23)c1 [Compound 10030] | 3.05 | 18.47
9 | O=C(O)CC(c1ccccc1F)c1c[nH]c2cc(F)ccc12 (centres unmarked) [Compound 11044] | 2.77 | 16.24
10 | COC[C@H]1CN(C(=O)Cc2c[nH]c3cc(F)ccc23)CCO1 [Compound 10154, (R)-2-(6-fluoro-1H-indol-3-yl)-1-(2-(methoxymethyl)morpholino)ethan-1-one] | 1.62 | 8.16
11 | CC(C)N1CCN(C(=O)Cc2c[nH]c3cc(F)ccc23)CC1 [Compound 10068] | 2.43 | 10.72
12 | O=C1C[C@H](c2c[nH]c3cc(F)ccc23)C(=O)N1 (single isomer, unassigned) [Compound 11039] | 3.59 | 39.34
13 | CC(=O)N1CCC(C(=O)N2CCC(c3c[nH]c4cc(F)ccc34)CC2)CC1 [Compound 11029] | 1.93 | 10.24
14 | CC1CN(C)CCC1NC(=O)Cc1c[nH]c2cc(F)ccc12 (centres unmarked) [Compound 10099, N-(1,3-dimethylpiperidin-4-yl)-2-(6-fluoro-1H-indol-3-yl)acetamide] | 1.4 | 11.85
15 | CC(=O)C1CN(C(=O)Cc2c[nH]c3cc(F)ccc23)C1 [Compound 10138] | 1.98 | 14.25
16 | Fc1ccc2c(CNc3ccccc3)c[nH]c2c1 [Compound 10052, N-((6-fluoro-1H-indol-3-yl)methyl) aniline] | 4.75 | 25.51
17 | O=C(c1ccc(F)cc1F)N1CCC(c2c[nH]c3cc(F)ccc23)C1 (centres unmarked) [Compound 11018] | 2.51 | 9.96

Row | Structure (SMILES) | 19F DLB Score (HRas^G12V [1]) | 19F T2-CPMG Score (HRas^G12V [2])
18 | COC(=O)C1CCN1C(=O)Cc1c[nH]c2cc(F)ccc12 (centres unmarked) [Compound 10088, Methyl 1-(2-(6-fluoro-1H-indol-3-yl)acetyl)azetidine-2-carboxylate] | 2.24 | 11.14
19 | CC(=O)Nc1cccc(C(=O)N2CCC(c3c[nH]c4cc(F)ccc34)CC2)c1 [Compound 11020] | 2.23 | 15.24
20 | O=C(C1CCNCC1)N1CCC(c2c[nH]c3cc(F)ccc23)CC1 [Compound 11047] | 2.79 | 22.81
21 | COCC1(C)CN(C(=O)Cc2c[nH]c3cc(F)ccc23)C1 [Compound 10134, 2-(6-fluoro-1H-indol-3-yl)-1-(3-(methoxymethyl)-3-methylazetidin-1-yl)ethan-1-one] | 2.1 | 13.32
22 | CCOC(=O)[C@@H]1CCCCN1C(=O)Cc1c[nH]c2cc(F)ccc12 [Compound 10126] | 4.22 | 13.7
23 | O=C(c1cccc(F)c1)N1CCC(c2c[nH]c3cc(F)ccc23)C1 (centres unmarked) [Compound 11022] | 3.43 | 5.71
24 | CC(C)(C)OC(=O)N1CCC(C(=O)N2CCC(c3c[nH]c4cc(F)ccc34)CC2)C1 (centres unmarked) [Compound 11017] | 1.86 | 16.89
25 | O=C(NCCc1c[nH]c2cc(F)ccc12)[C@H]1CCCO1 [Compound 10013] | 2.09 | 12.62
26 | COCC1CN(C(=O)Cc2c[nH]c3cc(F)ccc23)C1 [Compound 10075] | 1.77 | 7.09
27 | O=C(Cc1c[nH]c2cc(F)ccc12)Nc1cccnc1 [Compound 10058] | 3.07 | 21.6
28 | O=C1CCCN(C(=O)Cc2c[nH]c3cc(F)ccc23)C1 [Compound 10109] | 3.45 | 15.4
29 | N#CC(C(=O)N[C@@H](Cc1ccc(O)cc1)C(=O)O)c1c[nH]c2cc(F)ccc12 (some centres unmarked) [Compound 11031] | 1.97 | 38.39
30 | CC1CN(C(=O)Cc2n[nH]c3cc(F)ccc23)C1 [Compound 10144, 2-(6-fluoro-1H-indazol-3-yl)-1-(3-methylazetidin-1-yl)ethan-1-one] | 1.93 | 9.44
31 | CCOC(=O)CC1CCN(C(=O)Cc2c[nH]c3cc(F)ccc23)CC1 [Compound 10130] | 2.09 | 12.1
32 | CN1CCN(C(=O)Cc2c[nH]c3cc(F)ccc23)CC1=O [Compound 10146] | 1.56 | 9.75
33 | CCOC(=O)[C@H]1CCCCN1C(=O)Cc1c[nH]c2cc(F)ccc12 [Compound 10128] | 2.85 | 13.67
34 | O=C1CN(C(=O)Cc2c[nH]c3cc(F)ccc23)CCN1 [Compound 10145] | 1.64 | 16.13
